# Test results published in patent publication US20140107109A1, “AMINO-DIHYDROTHIAZINE AND AMINO-DIOXIDO DIHYDROTHIAZINE COMPOUNDS AS BETA-SECRETASE ANTAGONISTS AND METHODS OF USE” (Amgen Inc., priority 2012, published 2014).
# Like-named read-outs stand apart in the source and are kept apart here.
# Legend:
# [1] = biological target: Beta Secretase enzyme (BACE1) (Homo sapiens, UniProt P56817); assay: In vitro enzymatic BACE FRET assay; format: biochemical; conditions: read-out: BACE1 FRET assay IC50
# Beta Secretase enzyme (BACE1), sequence (P56817 46-501): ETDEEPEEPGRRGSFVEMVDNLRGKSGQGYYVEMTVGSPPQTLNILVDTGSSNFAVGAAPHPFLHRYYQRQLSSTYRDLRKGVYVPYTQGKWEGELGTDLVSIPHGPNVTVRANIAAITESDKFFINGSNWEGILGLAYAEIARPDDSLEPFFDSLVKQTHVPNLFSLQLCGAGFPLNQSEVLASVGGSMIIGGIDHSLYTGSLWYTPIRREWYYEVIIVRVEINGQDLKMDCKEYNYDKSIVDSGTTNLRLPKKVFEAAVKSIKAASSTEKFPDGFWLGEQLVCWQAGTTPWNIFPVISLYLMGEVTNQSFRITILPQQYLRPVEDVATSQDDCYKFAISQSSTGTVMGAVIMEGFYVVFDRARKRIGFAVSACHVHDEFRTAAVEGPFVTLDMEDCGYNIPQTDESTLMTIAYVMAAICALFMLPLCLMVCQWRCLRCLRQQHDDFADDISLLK
# In short: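 BACE1 cleavage of a 50 nM fluorophore/quencher peptide FRET substrate ran for one hour in 0.05 M acetate pH 4.2, 10% DMSO, 100 uM genapol. Tris buffer raised pH to neutrality to stop the reaction before fluorescence was read (excitation 488 nm, […]).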
# [2] = test system: Aβ40 in conditioned medium of cells stably expressing Amyloid Precursor Protein (APP); assay: In vitro BACE cell-based assay (HEK cell assay), Aβ40 sandwich ELISA; conditions: Homo sapiens, HEK293
# In short: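 APP-stably expressing cells (40K/well, grown 24 h in DMEM/10% FBS) were treated 24 h with compounds in 10-point dose response starting at 100 μM or 10 μM, 0.1% DMSO final. Secreted Aβ40 was measured by sandwich ELISA (pAb40 capture, biotinylated 6E10 detection, europium time-resolved fluorescence); IC50 from percent inhibition.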
# Cathepsin D (Cat D) = biological target: T1, Cathepsin D (Cat D) (Homo sapiens, UniProt P07339); assay: In vitro enzymatic Cathepsin D (Cat D) FRET assay; format: biochemical; conditions: read-out: CatD IC50
# T1 construct: Recombinant Cat D was expressed in CHO cells; made in house; host or cells: CHO cells
# T1 sequence (P07339 65-412, species assumed): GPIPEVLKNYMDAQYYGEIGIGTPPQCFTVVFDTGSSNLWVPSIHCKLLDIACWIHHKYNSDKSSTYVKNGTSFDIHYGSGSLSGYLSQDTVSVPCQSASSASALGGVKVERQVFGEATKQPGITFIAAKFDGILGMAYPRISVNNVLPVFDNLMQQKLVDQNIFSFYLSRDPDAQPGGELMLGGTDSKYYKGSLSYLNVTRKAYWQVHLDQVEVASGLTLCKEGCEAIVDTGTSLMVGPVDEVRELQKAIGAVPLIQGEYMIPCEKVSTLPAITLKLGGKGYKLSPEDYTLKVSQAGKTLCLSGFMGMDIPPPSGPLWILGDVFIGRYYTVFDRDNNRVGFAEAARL
# In short: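 Recombinant Cat D expressed in CHO cells, used at 9 nM and pre-incubated one hour with serially diluted inhibitor in DMSO. Peptide substrate carries a fluorophore and quencher flanking the cleavage site; reaction stopped with Tris buffer raising pH to neutrality, then fluorescence read.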
IC50 [1],"IC50 ([2]; Aβ40, 24 h incubation)",IC50 (Cathepsin D (Cat D)),"IC50 ([1]; average IC50, enzyme assay)",Compound,further results
2.7 nM,3 nM,81000 nM,–,"COc1cnc2c(Nc3ccc(F)c([C@]4(C)CS(=O)(=O)C(C)(C)C(N)=N4)c3)ncnc2c1 [Example 51, N-(3-((3R)-5-amino-3,6,6-trimethyl-1,1-dioxido-3,6-dihydro-2H-1,4-thiazin-3-yl)-4-fluorophenyl)-7-methoxypyrido[3,2-d]pyrimidin-4-amine]",–
2 nM,5.3 nM,73300 nM,–,"COc1cnc2c(Nc3ccc(F)c([C@]4(C)CS(=O)(=O)C(C)(C)C(N)=N4)c3)ncc(F)c2c1 [Example 50, N-(3-((3R)-5-amino-3,6,6-trimethyl-1,1-dioxido-3,6-dihydro-2H-1,4-thiazin-3-yl)-4-fluorophenyl)-5-fluoro-3-methoxy-1,7-naphthyridin-8-amine]",–
–,–,207000 nM,96.9 nM,"CC1(C)C(N)=N[C@](C)(c2cc(Oc3ncccc3Cl)ccc2F)CS1(=O)=O [Example 258, (5R)-5-(5-((3-chloro-2-pyridinyl)oxy)-2-fluorophenyl)-2,2,5-trimethyl-5,6-dihydro-2H-1,4-thiazin-3-amine 1,1-dioxide]","IC50 ([2]; average IC50, cell assay): 121 nM"
1.8 nM,–,> 400000 nM,–,"COc1cc(Cl)cnc1C(=O)Nc1ccc(F)c([C@]2(CF)CS(=O)(=O)C(C)(C)C(N)=N2)c1 [Example 382, N-(3-((3S)-5-amino-3-(fluoromethyl)-6,6-dimethyl-1,1-dioxido-3,6-dihydro-2H-1,4-thiazin-3-yl)-4-fluorophenyl)-5-chloro-3-methoxy-2-pyridinecarboxamide]",IC50 [2]: 17.3 nM
0.6 nM,–,576000 nM,–,"CC1(C)C(N)=N[C@](CF)(c2cc(NC(=O)c3cnc(OCC(F)(F)F)cn3)ccc2F)CS1(=O)=O [Example 405, N-(3-((3S)-5-amino-3-(fluoromethyl)-6,6-dimethyl-1,1-dioxido-3,6-dihydro-2H-1,4-thiazin-3-yl)-4-fluorophenyl)-5-(2,2,2-trifluoroethoxy)-2-pyrazinecarboxamide]",IC50 [2]: 27 nM
–,–,55600 nM,–,"C[C@]1(c2cc(NC(=O)c3ccc(Cl)cn3)ccc2F)N=C(N)C2(CC2)S(=O)(=O)[C@@H]1F [Example 200, N-(3-((5S,6R)-8-amino-5-fluoro-6-methyl-4,4-dioxido-4-thia-7-azaspiro[2.5]oct-7-en-6-yl)-4-fluorophenyl)-5-chloro-2-pyridinecarboxamide]","IC50 ([1]; average IC50): 1.3 nM; IC50 ([2]; average IC50, HEK cells): 3.9 nM"
–,–,12900 nM,91.9 nM,"CC1(C)C(N)=N[C@](C)(c2cc(Oc3cccc(C#N)n3)ccc2F)CS1(=O)=O [Example 283, 6-(3-((3R)-5-amino-3,6,6-trimethyl-1,1-dioxido-3,6-dihydro-2H-1,4-thiazin-3-yl)-4-fluorophenoxy)-2-pyridinecarbonitrile]","IC50 ([2]; average IC50, cell assay): 82.8 nM"
–,–,224000 nM,4160 nM,"CC1(C)C(N)=N[C@](C)(c2cc(Oc3c(C#N)ccnc3Cl)ccc2F)CS1(=O)=O [Example 308, 3-(3-((3R)-5-amino-3,6,6-trimethyl-1,1-dioxido-3,6-dihydro-2H-1,4-thiazin-3-yl)-4-fluorophenoxy)-2-chloro-4-pyridinecarbonitrile]","IC50 ([2]; average IC50, HEK cell assay): 3270 nM"

Compound,IC50 [1],"IC50 ([2]; Aβ40, 24 h incubation)",IC50 (Cathepsin D (Cat D)),"IC50 ([1]; average IC50, enzyme assay)",further results
"C[C@@]1(c2cc(NC(=O)c3ccc(Cl)cn3)ccc2F)CS(=O)(=O)C2(CC2)C(N)=N1 [Example 199, N-(3-((6R)-8-amino-6-methyl-4,4-dioxido-4-thia-7-azaspiro[2.5]oct-7-en-6-yl)-4-fluorophenyl)-5-chloro-2-pyridinecarboxamide]",–,–,81000 nM,–,"IC50 ([1]; average IC50): 1.9 nM; IC50 ([2]; average IC50, HEK cells): 1.1 nM"
"CC1(C)C(N)=N[C@](C)(c2cc(NC(=O)c3ncc(Cl)cc3F)ccc2F)CS1(=O)=O [Example 24, N-(3-((3R)-5-amino-3,6,6-trimethyl-1,1-dioxido-3,6-dihydro-2H-1,4-thiazin-3-yl)-4-fluorophenyl)-5-chloro-3-fluoro-2-pyridinecarboxamide]",0.6 nM,3.7 nM,> 400000 nM,–,–
